# Data reported in ChEMBL document CHEMBL1201862, “PubChem BioAssay data set” (2004).
# Calls of active or inactive are those of the source.
# Legend:
# Beta-galactosidase = Beta-galactosidase (Escherichia coli, UniProt Q8VNN2); assay: Dose response counterscreen for EBI2 assay utilizing the enzyme, b-galactosidase.; format: functional
# [1] = target: T1, Sentrin-specific protease 8 (Homo sapiens, UniProt Q96LD8); format: functional
# T1 sequence (Q96LD8 whole entry): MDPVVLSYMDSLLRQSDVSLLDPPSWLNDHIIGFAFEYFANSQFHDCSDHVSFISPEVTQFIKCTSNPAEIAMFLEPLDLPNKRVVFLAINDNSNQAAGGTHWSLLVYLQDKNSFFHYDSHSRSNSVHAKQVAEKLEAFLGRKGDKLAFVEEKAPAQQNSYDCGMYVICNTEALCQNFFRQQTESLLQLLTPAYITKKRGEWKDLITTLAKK
# [2] = target: T1, Sentrin-specific protease 8; format: functional; remark: listed apart in the source
# [3] = target: T2, Apoptotic protease-activating factor 1 (Homo sapiens, UniProt O14727); format: functional
# T2 sequence (O14727 whole entry): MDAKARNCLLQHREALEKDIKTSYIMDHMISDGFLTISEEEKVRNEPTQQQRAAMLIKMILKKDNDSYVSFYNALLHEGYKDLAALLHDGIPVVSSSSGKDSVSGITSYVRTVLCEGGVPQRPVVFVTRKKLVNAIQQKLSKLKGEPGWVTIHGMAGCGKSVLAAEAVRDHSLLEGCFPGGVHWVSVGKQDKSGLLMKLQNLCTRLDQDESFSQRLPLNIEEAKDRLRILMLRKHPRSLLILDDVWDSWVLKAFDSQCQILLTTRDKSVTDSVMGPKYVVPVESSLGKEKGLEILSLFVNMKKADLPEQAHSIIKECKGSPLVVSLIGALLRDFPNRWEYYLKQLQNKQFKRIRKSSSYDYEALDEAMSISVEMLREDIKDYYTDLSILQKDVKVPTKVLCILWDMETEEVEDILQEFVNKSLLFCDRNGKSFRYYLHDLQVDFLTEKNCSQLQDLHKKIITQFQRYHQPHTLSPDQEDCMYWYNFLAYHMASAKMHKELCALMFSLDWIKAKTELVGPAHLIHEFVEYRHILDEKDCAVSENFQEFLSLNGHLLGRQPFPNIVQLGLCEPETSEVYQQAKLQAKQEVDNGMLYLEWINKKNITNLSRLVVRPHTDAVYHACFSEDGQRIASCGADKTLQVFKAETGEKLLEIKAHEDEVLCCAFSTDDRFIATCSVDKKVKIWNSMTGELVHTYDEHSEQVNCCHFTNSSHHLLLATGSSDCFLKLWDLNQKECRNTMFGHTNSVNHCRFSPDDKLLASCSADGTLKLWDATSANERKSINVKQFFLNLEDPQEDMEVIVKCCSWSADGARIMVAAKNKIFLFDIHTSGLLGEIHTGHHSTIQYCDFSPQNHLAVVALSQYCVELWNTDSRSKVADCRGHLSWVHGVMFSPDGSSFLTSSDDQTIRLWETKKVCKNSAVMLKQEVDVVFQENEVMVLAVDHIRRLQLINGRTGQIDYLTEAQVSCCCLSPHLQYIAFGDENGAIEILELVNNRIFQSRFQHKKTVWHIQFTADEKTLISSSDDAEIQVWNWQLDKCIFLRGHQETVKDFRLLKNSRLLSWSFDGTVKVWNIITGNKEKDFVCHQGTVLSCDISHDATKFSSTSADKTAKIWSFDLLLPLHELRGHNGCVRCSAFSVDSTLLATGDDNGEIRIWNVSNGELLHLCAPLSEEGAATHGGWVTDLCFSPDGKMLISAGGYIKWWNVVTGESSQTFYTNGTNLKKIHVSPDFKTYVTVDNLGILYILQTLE
# [4] = HEK-293T viability loss after treatment – luminescence, T-cell screen hits, cytotoxicity control for TCR NF-kB inhibitor project, dose response (AID 489026); format: functional, cell-based;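 note: cells exposed to compound about 14 hours before the viability readout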
# [5] = NIH-3T3 fibroblast cytotoxicity, dose response, cytotoxicity control, cell-based, fluorescence, Alamar Blue, secondary assay (AID 2327); format: functional;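 note: NIH-3T3 mouse fibroblasts cultured with fluconazole at 8 µg/mL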
# [6] = viability of PTEN-deleted HCT116 cells – cell-based, HCT116 PTEN knockout, dose response (AID 1047); format: functional;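 note: HCT116 colon tumor cells with PTEN knocked out; cells exposed to compound for 60 hours before readout; potency for loss of cell viability measured by luminescence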
# [7] = viability of HCT116 lacking mutant beta-catenin – cell-based, human colon tumor, dose response (AID 1045); format: functional;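 note: HCT116 colon tumor cells with beta catenin knocked out; cells exposed to compound for 60 hours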
# Vero = assay: cells; format: functional; settings: Chlorocebus sabaeus
# [8] = fluconazole-exposed Candida albicans growth modulators – fluorescence, retest, confirmation (AID 2467); format: functional, cell-based
# [9] = target: Eukaryotic translation initiation factor 4E (Mus musculus, UniProt P63073); assay: blockers of eIF4G binding by eIF4E – biochemical, TR-FRET, dose response (AID 855); format: functional;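 note: potency for disrupting eIF4E binding to eIF4GI seen as loss of FRET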
# INS1 = assay: INS-1E survival protection against cytokine death – cell-based, luminescence, retest, dose response (AID 449756); format: functional; settings: Rattus norvegicus;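 note: cell death triggered by IL-1 beta plus TNF-alpha plus IFN-gamma mixture; protective hits raise ATP signal compared with cytokine alone wells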
# [10] = target: T3, Ubiquitin-conjugating enzyme E2 N (Homo sapiens, UniProt P61088); format: functional;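 note: Dose-response confirmation in a TR-FRET assay detecting UBC13-driven polyubiquitin chain formation, inhibition measured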
# T3 sequence (P61088 whole entry): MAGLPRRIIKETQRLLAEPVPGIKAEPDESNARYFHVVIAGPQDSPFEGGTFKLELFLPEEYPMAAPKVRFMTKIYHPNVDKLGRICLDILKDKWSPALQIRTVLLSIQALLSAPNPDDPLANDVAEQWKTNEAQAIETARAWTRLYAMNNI
# [11] = target: Heat shock protein HSP 90-alpha (Homo sapiens, UniProt P07900); format: functional, organism-based
# [12] = target: T4, Replicative DNA helicase DnaB (Mycobacterium tuberculosis, UniProt P9WMR3); assay: DnaB intein splicing inhibitors, dose response, biochemical, cell-free fluorescence (AID 449749); format: functional
# T4 sequence (P9WMR3 whole entry): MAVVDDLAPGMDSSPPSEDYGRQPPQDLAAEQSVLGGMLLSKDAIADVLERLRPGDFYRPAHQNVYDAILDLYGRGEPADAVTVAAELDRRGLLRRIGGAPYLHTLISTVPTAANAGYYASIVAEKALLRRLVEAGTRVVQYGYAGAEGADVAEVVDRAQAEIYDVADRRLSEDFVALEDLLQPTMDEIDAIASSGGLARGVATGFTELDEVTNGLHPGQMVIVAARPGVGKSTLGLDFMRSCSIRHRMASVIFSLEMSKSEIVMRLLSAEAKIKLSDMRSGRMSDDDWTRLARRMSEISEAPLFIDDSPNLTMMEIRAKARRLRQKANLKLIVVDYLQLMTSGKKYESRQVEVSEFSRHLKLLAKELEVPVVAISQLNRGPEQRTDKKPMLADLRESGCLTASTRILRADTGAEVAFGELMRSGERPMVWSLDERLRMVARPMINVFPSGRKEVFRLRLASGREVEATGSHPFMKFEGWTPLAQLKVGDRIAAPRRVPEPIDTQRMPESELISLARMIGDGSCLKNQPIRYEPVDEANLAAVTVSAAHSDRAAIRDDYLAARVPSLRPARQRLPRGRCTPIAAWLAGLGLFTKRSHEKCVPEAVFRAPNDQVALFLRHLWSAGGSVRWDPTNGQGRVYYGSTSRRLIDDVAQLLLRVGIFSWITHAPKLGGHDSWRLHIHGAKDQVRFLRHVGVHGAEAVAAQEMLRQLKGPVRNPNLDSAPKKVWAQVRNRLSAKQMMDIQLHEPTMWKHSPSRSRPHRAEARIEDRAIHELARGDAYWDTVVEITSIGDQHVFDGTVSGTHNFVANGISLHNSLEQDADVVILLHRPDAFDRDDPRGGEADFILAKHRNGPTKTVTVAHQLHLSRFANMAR
# Large T antigen = Large T antigen (Simian virus 40, UniProt P03070); format: functional, Betapolyomavirus macacae;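 note: Confirmatory-stage PubChem screen for compounds that inhibit SV40 T antigen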
# Protein RecA = target: T5, Protein RecA (Mycobacterium tuberculosis, UniProt P9WHJ3); assay: Fluorescence Cell-Free Homogeneous Dose Retest to Identify Inhibitors of RecA-Intein Splicing Activity. [Related pubchem assays (depositor defined):AID2097, AID2223, AID489010, AID492950]; format: functional
# T5 sequence (P9WHJ3 whole entry): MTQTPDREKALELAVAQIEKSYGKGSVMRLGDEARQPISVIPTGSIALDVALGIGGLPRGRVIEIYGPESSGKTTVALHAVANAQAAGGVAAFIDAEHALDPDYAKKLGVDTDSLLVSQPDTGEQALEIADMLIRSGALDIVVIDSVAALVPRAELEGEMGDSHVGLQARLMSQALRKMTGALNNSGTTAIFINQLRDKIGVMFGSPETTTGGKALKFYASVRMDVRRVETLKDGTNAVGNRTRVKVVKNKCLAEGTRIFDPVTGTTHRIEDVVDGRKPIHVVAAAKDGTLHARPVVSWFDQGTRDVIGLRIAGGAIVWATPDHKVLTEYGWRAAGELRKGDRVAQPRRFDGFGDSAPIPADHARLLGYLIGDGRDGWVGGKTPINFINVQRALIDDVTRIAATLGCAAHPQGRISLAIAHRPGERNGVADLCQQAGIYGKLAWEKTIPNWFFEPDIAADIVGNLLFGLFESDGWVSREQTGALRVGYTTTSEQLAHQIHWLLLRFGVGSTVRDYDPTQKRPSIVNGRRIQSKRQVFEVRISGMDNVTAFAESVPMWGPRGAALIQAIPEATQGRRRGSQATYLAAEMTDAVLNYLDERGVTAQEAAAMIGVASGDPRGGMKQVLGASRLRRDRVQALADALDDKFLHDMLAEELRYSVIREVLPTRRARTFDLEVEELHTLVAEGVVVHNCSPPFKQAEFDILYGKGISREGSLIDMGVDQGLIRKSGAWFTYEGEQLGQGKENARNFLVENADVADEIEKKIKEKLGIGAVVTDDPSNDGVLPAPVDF
# [13] = viability loss in THP-1 monocytes – THP-1 cells, cytotoxicity control for Vif-APOBEC3G degradation inhibitor project, dose response (AID 1117359); format: functional; settings: THP-1
# [14] = blockers of HIV-1 ZM109 envelope-driven cell-cell fusion – HeLa effector, CEM target cells, luciferase, cherry-pick, dose response (AID 652058); format: functional, cell-based;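 note: luciferase signal from HIV-1 Env mediated cell-cell fusion of effector and target cells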
# [15] = HIV-1 AD8 envelope cell-cell fusion blockers – cherry-pick, dose response (AID 652062); format: functional, cell-based;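 note: luciferase signal from cell-cell fusion driven by HIV-1 clade B AD8 Env; potency is for inhibitors of fusion seen as a drop in luminescence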
# [16] = growth inhibition of PfATP4-mutant resistant parasites – NITD609-resistant line, SYBR Green, dry powder, dose response (AID 1159571); format: functional, cell-based;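 note: parasites synchronized at ring stage by sorbitol before testing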
# [17] = toxicity to human HepG2 hepatoma cells – cell-based, plate reader, dry powder samples, cytotoxicity control, dose response (AID 1159569); format: functional;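 note: inhibitor potency with signal falling toward the positive control level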
# [18] = P. falciparum Dd2 growth inhibitors, dose response, SYBR Green, cherry-picked samples (AID 1159567); format: functional, cell-based
# [19] = Dd2 malaria parasite growth inhibition potency – SYBR Green, dry powder samples, dose response (AID 1159566); format: functional, cell-based;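 note: potency for growth inhibition with lower SYBR green DNA signal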
# [20] = growth inhibition of yeast DHODH-expressing 3D7 parasites – SYBR Green, dry powder samples, dose response (AID 1159570); format: functional, cell-based;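 note: parasite growth measured after 72 hours of compound exposure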
# Chain of Beta-galactosidase (Q8VNN2 whole entry): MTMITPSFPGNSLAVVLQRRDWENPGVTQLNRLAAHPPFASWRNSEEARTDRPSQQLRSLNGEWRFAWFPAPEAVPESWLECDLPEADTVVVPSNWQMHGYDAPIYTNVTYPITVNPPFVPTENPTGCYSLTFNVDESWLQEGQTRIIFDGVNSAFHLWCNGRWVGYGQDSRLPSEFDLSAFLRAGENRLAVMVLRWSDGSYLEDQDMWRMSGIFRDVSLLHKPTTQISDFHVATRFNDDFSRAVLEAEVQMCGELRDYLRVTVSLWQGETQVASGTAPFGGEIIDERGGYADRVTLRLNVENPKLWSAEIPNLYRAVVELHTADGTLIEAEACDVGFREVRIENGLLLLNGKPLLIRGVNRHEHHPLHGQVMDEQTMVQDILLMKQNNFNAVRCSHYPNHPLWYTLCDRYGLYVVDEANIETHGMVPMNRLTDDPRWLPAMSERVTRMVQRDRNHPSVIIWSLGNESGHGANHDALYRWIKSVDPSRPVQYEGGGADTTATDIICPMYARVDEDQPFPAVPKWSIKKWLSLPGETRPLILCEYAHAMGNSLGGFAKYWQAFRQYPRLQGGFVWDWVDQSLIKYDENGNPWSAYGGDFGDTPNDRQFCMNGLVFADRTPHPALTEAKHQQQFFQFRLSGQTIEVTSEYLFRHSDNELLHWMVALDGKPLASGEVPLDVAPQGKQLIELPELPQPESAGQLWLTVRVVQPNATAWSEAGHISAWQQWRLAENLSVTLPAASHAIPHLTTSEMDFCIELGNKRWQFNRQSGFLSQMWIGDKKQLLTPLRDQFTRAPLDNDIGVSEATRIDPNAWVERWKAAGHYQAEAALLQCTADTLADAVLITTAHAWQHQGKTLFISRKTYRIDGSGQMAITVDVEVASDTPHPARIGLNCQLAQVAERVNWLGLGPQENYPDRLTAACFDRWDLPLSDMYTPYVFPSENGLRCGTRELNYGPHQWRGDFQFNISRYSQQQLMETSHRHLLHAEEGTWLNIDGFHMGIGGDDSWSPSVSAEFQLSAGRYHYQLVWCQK
# Chain of Eukaryotic translation initiation factor 4E (P63073 whole entry): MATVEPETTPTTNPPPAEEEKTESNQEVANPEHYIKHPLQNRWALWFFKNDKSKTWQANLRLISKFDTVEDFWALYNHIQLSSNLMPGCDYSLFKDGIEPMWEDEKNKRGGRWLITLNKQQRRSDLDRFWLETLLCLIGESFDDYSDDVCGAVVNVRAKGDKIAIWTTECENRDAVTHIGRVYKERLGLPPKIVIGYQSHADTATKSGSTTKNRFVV
# Chain of Large T antigen (P03070 whole entry): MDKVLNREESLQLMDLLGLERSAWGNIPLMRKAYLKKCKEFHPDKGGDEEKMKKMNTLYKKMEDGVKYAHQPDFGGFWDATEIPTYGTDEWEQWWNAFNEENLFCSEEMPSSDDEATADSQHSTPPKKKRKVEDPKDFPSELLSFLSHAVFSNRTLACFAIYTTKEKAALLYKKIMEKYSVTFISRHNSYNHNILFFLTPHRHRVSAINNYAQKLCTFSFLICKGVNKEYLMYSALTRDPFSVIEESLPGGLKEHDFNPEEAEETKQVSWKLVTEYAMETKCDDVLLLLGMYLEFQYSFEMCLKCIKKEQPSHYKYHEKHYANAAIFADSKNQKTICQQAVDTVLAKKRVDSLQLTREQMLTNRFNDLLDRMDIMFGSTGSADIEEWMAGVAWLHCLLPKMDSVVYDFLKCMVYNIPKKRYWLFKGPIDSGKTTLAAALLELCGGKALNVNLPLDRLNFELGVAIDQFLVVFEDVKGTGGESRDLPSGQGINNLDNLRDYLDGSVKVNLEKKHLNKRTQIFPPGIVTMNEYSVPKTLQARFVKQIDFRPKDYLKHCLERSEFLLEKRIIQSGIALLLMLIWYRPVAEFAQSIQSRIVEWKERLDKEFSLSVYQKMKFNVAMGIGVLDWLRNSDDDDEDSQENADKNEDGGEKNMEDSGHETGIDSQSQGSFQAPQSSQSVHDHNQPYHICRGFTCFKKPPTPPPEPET
smiles,measurement,setting,value
CCOC(=O)c1cnc(SCC(=O)Nc2cc(C(F)(F)F)ccc2N2CCOCC2)nc1N,IC50,Beta-galactosidase,> 80 µM (inactive)
COc1ccc(/C=C/C(=O)N2CCN(c3ccccn3)CC2)cc1,IC50,Beta-galactosidase,> 80 µM (inactive)
Cc1cc2c(NC(=O)CC(C)(C)CC(=O)O)cccc2nn1,IC50,[1],15.1 µM (active)
same,IC50,[2],8.03 µM (active)
CCCCCCCCCCCCCCCC[n+]1cccc(C(=O)N(CC)CC)c1,IC50,[3],21.5 µM (active)
same,IC50,[4],24.8 µM (inactive)
same,EC50,[5],41.8 µM (active)
same,EC50,[6],6.46 µM (active)
same,EC50,[7],5.92 µM (active)
same,CC50,Vero,18.1 µM (active)
same,EC50,[8],> 38 µM (not active)
same,IC50,[9],28.9 µM (active)
same,AC50,INS1,4.92 µM (active)
same,IC50,[10],> 20 µM (inactive)
same,AC50,[11],2.89 µM (active)
COc1ccc(OCC(=O)N2CCN(c3nnc(-c4ccccc4)c4ccccc34)CC2)cc1,IC50,Beta-galactosidase,> 80 µM (inactive)
CCOc1cc(NC2CS(=O)(=O)CC2O)c(OCC)cc1NC(=O)c1ccccc1 (stereo not given),AC50,[12],52.8 µM (active)
same,IC50,[1],34.7 µM (active)
same,IC50,Large T antigen,31.1 µM (active)
same,EC50,Protein RecA,> 380 µM (inactive)
same,IC50,[2],45.9 µM (active)
O=C(Nc1ccc(Br)cn1)C1CCN(S(=O)(=O)c2cccs2)CC1,CC50,[13],> 40 µM (active)
N#Cc1cccc(Oc2ccc(S(=O)(=O)N3CCCC3)cn2)c1,CC50,[13],> 40 µM (active)
C[C@@H]1CCCCO[C@H](CN(C)C)[C@H](C)CN([C@@H](C)CO)C(=O)c2cc(NS(=O)(=O)c3cn(C)cn3)ccc2O1,AC50,[14],1.36 µM (active)
same,AC50,[15],2.6 µM (active)
CNC[C@@H]1Oc2cc(C#Cc3cccnc3)ccc2S(=O)(=O)N([C@H](C)CO)C[C@H]1C,AC50,[16],0.984 µM (active)
same,AC50,[17],93.8 µM (active)
same,AC50,[18],1.61 µM (active)
same,AC50,[19],1.02 µM (active)
same,AC50,[20],2.13 µM (active)
CN(C)CC(=O)N1C[C@@H]2N[C@H](C1)[C@@H]2c1ccc(/C=C/c2ccccc2)cc1,AC50,[16],4.64 µM (active)
same,AC50,[17],23.2 µM (active)
same,AC50,[18],2.01 µM (active)
same,AC50,[19],1.94 µM (active)
same,AC50,[20],4.57 µM (active)
C[C@H](CO)N1C[C@H](C)[C@H](CN(C)C(=O)Cc2ccncc2)Oc2cc(C#CC3CCCC3)ccc2S1(=O)=O,AC50,[16],4.96 µM (active)
same,AC50,[17],97 µM (active)
same,AC50,[18],2.13 µM (active)
same,AC50,[19],2.28 µM (active)
same,AC50,[20],4.97 µM (active)
C[C@H]1CN([C@@H](C)CO)C(=O)c2cc(C#Cc3cccc(F)c3)cnc2O[C@@H]1CN(C)C(=O)C1CCCCC1,AC50,[16],0.742 µM (active)
same,AC50,[17],22.1 µM (active)
same,AC50,[18],0.686 µM (active)
same,AC50,[19],0.495 µM (active)
same,AC50,[20],1.37 µM (active)
